Measurements reported in article PMC9822051, “A Study on the Chemistry and Biological Activity of 26-Sulfur Analogs of Diosgenin: Synthesis of 26-Thiodiosgenin S-Mono- and Dioxides, and Their Alkyl Derivatives” (Molecules, 2022).
Values after ≈ are worked out from the molar mass of the structure shown. Values joined by “and” are separate entries in the source; they are usually repeats but may differ in a detail not shown here. Identical values can stand only once. Like-named read-outs stand apart in the source and are kept apart here.

Legend:
[1] = system: Escherichia coli ATCC 35218; experiment: Antibacterial activity, broth microdilution (MIC/MBC); format: cell-based; conditions: E. coli ATCC 35218; for MIC: 37 °C, 24 h
Protocol: (§1) The antibacterial activity of tested compounds was assessed by monitoring the cell growth of Staphylococcus aureus 8325-4 and Escherichia coli ATCC 35218 using the broth microdilution method, conducted according to the National Committee for Clinical Laboratory Standards. First, compounds were dissolved in methanol and the solution was added to Mueller Hinton broth (MHB) for bacteria to give a final concentration of 2000 µg/mL. The samples were then serially two-fold diluted in bullion to obtain concentration ranging from 1000 to 0.12 μg/mL in 96-well microtiter plate with the final volumes of 100 μL. Next, 100 μL of bacteria suspension was injected into each well. The final bacteria cell concentration was 1 × 10^6 colony-forming units per ml (CFU/mL). The plates were incubated at 37 °C for 24 h. The MIC value was determined as the lowest concentration of an antibacterial agent that inhibited bacterial growth, as indicated by the absence of turbidity. The MBC value was determined as the lowest concentration of antibacterial agents for which no bacterial growth on the plates was observed.

[2] = system: Staphylococcus aureus 8325-4; experiment: as above; format: cell-based; conditions: S. aureus 8325-4; for MIC: 37 °C, 24 h
Protocol: as §1

[3] = system: S. aureus 8325-4 membrane proteins (Trp^214 residues); experiment: Trp fluorescence quenching of bacterial membrane proteins (Stern-Volmer); format: binding, Staphylococcus aureus; conditions: for Stern-Volmer constant KSV: compound 0.5–2.0 µM, PBS pH 7.4, λexc 295 nm, λem 350 nm; for quenching constant kq: kq = KSV/τ0
Description: (§2) Based on fluorescence analysis, the Stern-Volmer plots were drawn (Figure 5) using equation given below (Equation (1)). (1) F0/F=1+KSV[Q] where: F0 and F are the Trp fluorescence without and in the presence of quencher (studied compounds), KSV—Stern-Volmer constant, [Q]—concentration of the quencher.
(§3) In order to check whether studied compounds form complexes with bacterial cells proteins, the quenching constants (kq) have been calculated using equation below (Equation (2)) and are presented in Table 3. (2) kq=KSV/τ0 where: kq—quenching constant, KSV—Stern-Volmer constant, τ0—fluorescence lifetime of fluorophore molecules.
(§4) Bacteria strains: S. aureus and E. coli grown overnight at 37 °C in Mueller Hinton (MH) broth with shaking at 200 rpm. Next, bacteria suspensions were centrifuged (2300× g, 15 min) and resuspended in PBS after removing the supernatant. For experiments, bacteria suspensions (OD600 = 0.1 in C = 10 mM PBS buffer, pH = 7.4) have been used in the presence (concentration range 0.5–2.0 µM) and without the studied compounds. The measurements were performed in quartz cuvette (1 cm × 1 cm). Fluorescence was monitored at the λexc. = 295 nm and λem. = 350 nm from tryptophan (Trp^214) residues in bacterial membrane proteins. The studies were carried out using Perkin-Elmer LS-55B (Perkin-Elmer, Pontyclun, UK) spectrofluorometer.

[4] = system: E. coli ATCC 35218 membrane proteins (Trp^214 residues); experiment: as above; format: binding, Escherichia coli; conditions: for Stern-Volmer constant KSV: compound 0.5–2.0 µM, PBS pH 7.4, λexc 295 nm, λem 350 nm; for quenching constant kq: kq = KSV/τ0
Description: as §2, §3, §4

[5] = Cytotoxicity, resazurin, 72 h; format: cell-based, human; conditions: human
Protocol: The studied compounds were evaluated for cytotoxicity in human cancer cell lines (cervical carcinoma HeLa, chronic myelogenous leukemia K562 and breast adenocarcinoma MCF7) and normal human retina cells RPE-1 (ca. 5.0 × 10^4 cells·mL^−1) after 72 h of treatment using resazurin (Merck/MilliporeSigma, St. Louis, MO, USA) as described earlier for Calcein AM dye.

[6] = system: lung cancer cell line A549; parameters: method as in PMID 33402081, PMID 23751199; conditions: cited from earlier work
[7] = Escherichia coli, ATCC35218, read-out: MIC
[8] = Escherichia coli, ATCC35218, read-out: MBC
[9] = Staphylococcus aureus, 83254, read-out: MIC
[10] = Staphylococcus aureus, 83254, read-out: MBC
[11] = K562 chronic myelogenous leukemia cells, K562, 72 h
[12] = MCF7 breast adenocarcinoma cells, MCF7, 72 h
[13] = RPE-1 normal retina cells, RPE-1 normal cells

Row | Structure (SMILES) | MIC [1, 7] | MBC [1, 8] [µg/mL] | MIC [2, 9] | MBC [2, 10] [µg/mL] | Stern-Volmer constant KSV [3] | quenching constant kq [3] | Stern-Volmer constant KSV [4] | quenching constant kq [4] | IC50 at 72 h ([5]; HeLa cervical carcinoma cells) [µM] | IC50 at 72 h [5, 11] [µM] | IC50 at 72 h [5, 12] [µM] | IC50 at 72 h [5, 13] [µM] | melting point [°C] | further results
1 | C[C@@H]1CC[C@@]2(OC1)O[C@H]1C[C@H]3[C@@H]4CC=C5C[C@@H](O)CC[C@]5(C)[C@H]4CC[C@]3(C)[C@H]1[C@@H]2C [Diosgenin (1), diosgenin] | 250 µg/mL and 603 µM | 500 (≈ 1210 µM) | 3.9 µg/mL and 9.4 µM | 15.6 (≈ 37.7 µM) | 5.441 ± 0.131 10^4 M^−1 | 10.93 ± 0.27 10^12 M^−1s^−1 | 3.384 ± 0.165 10^4 M^−1 | 6.76 ± 0.35 10^12 M^−1s^−1 | – | – | – | – | – | MBC [1]: 500 µg/mL (≈ 1210 µM); MIC [1]: 250 µg/mL (≈ 603 µM); MBC [2]: 15.615 µg/mL (≈ 37.7 µM); MIC [2]: 3.9 µg/mL (≈ 9.41 µM); IC50 at 72 h ([5]; HeLa): > 50 µM; IC50 at 72 h ([5]; RPE-1 normal cells): > 50 µM; IC50 at 72 h ([5]; K562, 72 h): > 50 µM; IC50 at 72 h ([5]; MCF7, 72 h): > 50 µM
2 | C[C@@H]1CC[C@@]2(OC1)O[C@H]1C[C@H]3[C@@H]4CC=C5C[C@@H](O[C@@H]6O[C@H](CO)[C@@H](O[C@@H]7O[C@@H](C)[C@H](O)[C@@H](O)[C@H]7O)[C@H](O)[C@H]6O[C@@H]6O[C@@H](C)[C@H](O)[C@@H](O)[C@H]6O)CC[C@]5(C)[C@H]4CC[C@]3(C)[C@H]1[C@@H]2C [dioscine] | – | – | – | – | – | – | – | – | – | – | – | – | – | IC50 [6]: 4.02 µM
3 | CC1CCC2(OC3CC4C5CC=C6CC(O)CCC6(C)C5CCC4(C)C3C2C)SC1 (stereo not shown) [26-Thiodiosgenin (3), 26-thiodiosgenin] | 62.5 µg/mL and 145 µM | 125 (≈ 290 µM) | 1.95 µg/mL and 4.5 µM | 3.9 (≈ 9.06 µM) | 8.322 ± 0.142 10^4 M^−1 | 16.62 ± 0.23 10^12 M^−1s^−1 | 5.091 ± 0.152 10^4 M^−1 | 10.02 ± 0.28 10^12 M^−1s^−1 | > 50 | > 50 | > 50 | > 50 | – | MBC [1]: 125 µg/mL (≈ 290 µM); MIC [1]: 62.5 µg/mL (≈ 145 µM); MBC [2]: 3.9 µg/mL (≈ 9.06 µM); MIC [2]: 1.95 µg/mL (≈ 4.53 µM)
4 | CC1CCC2(OC3CC4C5CC=C6CC(O)CCC6(C)C5CCC4(C)C3C2C)[S+]([O-])C1 (stereo not shown) [Sulfoxide 6] | 125 µg/mL and 280 µM | 250 (≈ 560 µM) | 3.9 µg/mL and 8.7 µM | 7.8 (≈ 17.5 µM) | 4.051 ± 0.170 10^4 M^−1 | 8.14 ± 0.35 10^12 M^−1s^−1 | 1.456 ± 0.201 10^4 M^−1 | 2.92 ± 0.36 10^12 M^−1s^−1 | > 50 | > 50 | > 50 | > 50 | 143 to 146 | –
5 | CC1CCC2(CC1)O[C@H]1C[C@H]3[C@@H]4CC[C@H]5C[C@@H](O)CC[C@]5(C)[C@H]4CC[C@]3(C)[C@H]1[C@@H]2C (stereo partly shown) [Carbaanalog 5] | 500 µg/mL and 1210 µM | 1000 (≈ 2410 µM) | 7.8 µg/mL and 18.9 µM | 31.2 (≈ 75.4 µM) | 1.258 ± 0.189 10^4 M^−1 | 2.52 ± 0.32 10^12 M^−1s^−1 | 2.021 ± 0.198 10^4 M^−1 | 4.04 ± 0.45 10^12 M^−1s^−1 | 38.2 ± 0.8 | > 50 | > 50 | > 50 | – | MIC [1]: 500 µg/mL (≈ 1210 µM); MIC [2]: 7.8 µg/mL (≈ 18.8 µM)
6 | CC1CCC2(OC3CC4C5CC=C6CC(O)CCC6(C)C5CCC4(C)C3C2C)S(=O)(=O)C1 (stereo not shown) [Sulfone 8] | 125 µg/mL and 270 µM | 250 (≈ 540 µM) | 3.9 µg/mL and 8.4 µM | 7.8 (≈ 16.9 µM) | 2.915 ± 0.175 10^4 M^−1 | 5.82 ± 0.31 10^12 M^−1s^−1 | 2.962 ± 0.105 10^4 M^−1 | 5.92 ± 0.16 10^12 M^−1s^−1 | > 50 | > 50 | > 50 | > 50 | 205 to 207 | –
7 | CCC1C(C)CCC2(OC3CC4C5CC=C6CC(O)CCC6(C)C5CCC4(C)C3C2C)S1(=O)=O (stereo not shown) [26-Ethylsulfone 12] | – | – | – | – | – | – | – | – | 44.1 ± 0.1 | > 50 | > 50 | > 50 | 210 to 212 | –
8 | CC1CCC2(OC3CC4C5CC6OC67CC(O)CCC7(C)C5CCC4(C)C3C2C)S(=O)(=O)C1 (stereo not shown) [Epoxysulfone 9] | – | – | – | – | – | – | – | – | > 50 | > 50 | > 50 | > 50 | – | –
9 | CC1CCC2(OC3CC4C5CC=C6CC(O)CCC6(C)C5CCC4(C)C3C2C)S(=O)(=O)C1C (stereo not drawn) [α-Methylsulfone 11] | 125 µg/mL and 262 µM | 250 (≈ 524 µM) | 3.9 µg/mL and 8.2 µM | 7.8 (≈ 16.4 µM) | 3.442 ± 0.168 10^4 M^−1 | 6.84 ± 0.34 10^12 M^−1s^−1 | 2.470 ± 0.101 10^4 M^−1 | 4.94 ± 0.17 10^12 M^−1s^−1 | 92.3 | > 50 | > 50 | > 50 | 225 to 227 | –
10 | C[C@@H]1CC[C@]2(O[C@H]3C[C@H]4[C@@H]5CC=C6C[C@@H](O[C@@H]7O[C@H](CO)[C@@H](O[C@@H]8O[C@@H](C)[C@H](O)[C@@H](O)[C@H]8O)[C@H](O)[C@H]7O[C@@H]7O[C@@H](C)[C@H](O)[C@@H](O)[C@H]7O)CC[C@]6(C)[C@H]5CC[C@]4(C)[C@H]3[C@@H]2C)SC1 [26-thiodioscine] | – | – | – | – | – | – | – | – | – | – | – | – | – | IC50 [6]: 3.72 µM
11 | CC1CCC2(OC3CC4C5CC=C6CC(O)CCC6(C)C5CCC4(C)C3C2C)[S+]([O-])C1(C)C (stereo not shown) [Dimethylsulfoxide 10] | – | – | – | – | – | – | – | – | 32.2 ± 1.7 | > 50 | > 50 | > 50 | – | –
